Experimental data from patent publication US20250062039A1, “ESTIMATION OF PHARMACOKINETIC (PK) PARAMETERS OF DRUG CANDIDATES USING UNIVERSAL PK PARAMETERS BOUNDS” (Tata Consultancy Services Limited, priority 2023, published 2025).

Key:
[1] = Oral 500 mg; cited from earlier work
[2] = human, in vivo, po, 500 mg
[3] = clinical; details: human, in vivo, po, 500 mg

CC[C@H]1OC(=O)[C@H](C)[C@@H](O[C@H]2C[C@@](C)(OC)[C@@H](O)[C@H](C)O2)[C@H](C)[C@@H](O[C@@H]2O[C@H](C)C[C@H](N(C)C)[C@H]2O)[C@](C)(O)C[C@@H](C)CN(C)[C@H](C)[C@@H](O)[C@]1(C)O [Azithromycin]
AUC, Maximum [1]: 6380 ng·h/mL
AUC, Mean Value [1]: 4860 ng·h/mL
AUC, Minimum [1]: 3500 ng·h/mL
CL, Mean Value [1]: 664.84 mL/min
K10, Maximum [1]: 0.12 h⁻¹
K10, Mean Value [1]: 0.08 h⁻¹
K10, Minimum [1]: 0.05 h⁻¹
K12, Maximum [1]: 0.18 h⁻¹
K12, Mean Value [1]: 0.12 h⁻¹
K12, Minimum [1]: 0.07 h⁻¹
K21, Maximum [1]: 0.06 h⁻¹
K21, Mean Value [1]: 0.04 h⁻¹
K21, Minimum [1]: 0.03 h⁻¹
Ke, Maximum [1]: 0.02 h⁻¹
Ke, Mean Value [1]: 0.02 h⁻¹
Ke, Minimum [1]: 0.02 h⁻¹
T1/2 beta, Mean Value [1]: 55.46 h
V1, Maximum [1]: 1025.35 L
V1, Mean Value [1]: 586.83 L
V1, Minimum [1]: 341.94 L
V2, Maximum [1]: 3193.05 L
V2, Mean Value [1]: 1779.12 L
V2, Minimum [1]: 798.71 L
Vd beta, Mean Value [1]: 3219.51 L
Vss, Maximum [1]: 4218.4 L
Vss, Mean Value [1]: 2347.95 L
Vss, Minimum [1]: 1018.78 L
CL, Selected Parameter Value [2]: 280.35 mL/min
Vd beta, Selected Parameter Value [2]: 5475.92 L
Vss, Selected Parameter Value [2]: 4218.4 L
AUC [3]: 6380 ng·h/mL
half-life [3]: 76.2 h
